The source of these data is publication PMC6813295, “A tumour-selective cascade activatable self-detained system for drug delivery and cancer imaging” (Nature Communications, 2019).

Data set [1] deals with H460 cells. In words: Flow cytometry labelling ratio of subcultured cells. It counts as cell-based, human. The settings on record: 50 μM, 37 °C, 2 h; for labelling ratio of H460 cells at the third generation: subcultured at 24 h interval. As for the experimental part:
Supplementary Figure 24∣Flow cytometry histograms of H460 cells treated with molecule 1, 2 and
3 (50 μM) at 37 °C for 2 h, respectively, and then subcultured for designated generations (a 24 h
interval). The untreated H460 cells were used as the control group.
(§1) (1 picture or pasted object on this page, not shown here)

Data set [2] in a line: Blood circulation pharmacokinetics. The following applies: Balb/c mice, IV single dose 14 mg/kg, blood 0.017–6 h, fluorescence spectroscopy, DAS2.0, mean ± s.d. n = 3. It counts as in vivo, mouse. As for the experimental part:
respectively. Cell viability (%) was equal to (Asample - Ablank)/ (Acontrol - Ablank) x 100. All the experiments were performed in triplicate.
Blood circulation. To investigate the pharmacokinetics of the compound 1, 2 and 3, Balb/c mice were randomly divided into three groups (n = 3). Each group was intravenous (iv) injected with a single dose of 14 mg/kg of compou nd 1, 2 or 3. Blood samples were collected via the orbital venous plexus at 0.017, 0.08 3, 0.25, 0.5, 1, 3, 4 and 6 h post injection and collected into EDTA tubes. The supernatant of the blood samples was collected by centrifugation at 10 000 rpm for 10 min , and the content of compound 1, 2 and 3 in the supernatant w ere determined using fluorescence spectrophotometric measurement. Data for known concentrations of compound 1, 2 or 3 (concentration from 1.2 μM to 25.0 μM) were used to make the standard curve, the “Predicted R-Squared” value of 0.99.
Preparation and characteristic of liposomes. Liposomes were prepared by a thin lipid film hydration method followed by extrusion. Briefly, PC: CH: DSPE -PEG-NHS = 66: 32: 2 (molar ratio) were dissolved in a chloroform/methanol mixture (4: 1) in a round bottom flask. The lipid film was hydrated with PBS (pH 7.4) after evaporation of the chloroform/methanol solvents. […]
3 h. […] Morphologies of liposomes were measured by Tecnai G20 electron microscope.

Data set [3] in a line: Organ biodistribution from fluorescence of tissue lysates. The following applies: female, Balb/c nude, mouse, in vivo, iv, 14 mg/kg. As for the experimental part:
(§2) Animal experiments were performed in accordance with the Guide for the Care and Use of Laboratory Animals and approved by the Institutional Animal Care and Use Committee (IACUC) of the National Center for Nanoscience and Technology (NCNST), China. Female Balb/c nude mice (6–8 weeks, 18–22 g) were purchased from Vital River Laboratory Animal Technology Co. Ltd. H460 cells were subcutaneously implanted into these mice on the right flank. Then the mice were randomly grouped (n = 3). When the tumour grew to a single aspect of about 0.5 cm, we injected the molecules 1, 2 and 3 intravenously in the same dose of 14 mg/kg in PBS solution, respectively. Fluorescence images were measured by a Maestro II in vivo imaging system (CRi) at 1, 2, 4, 6, 8, 12, 24, 48, 72, 96 and 120 h post injection. Further, tumours and other major organs (i.e., heart, liver, spleen, lung and kidney) were collected for ex vivo fluorescence imaging at 48 h post injection. The organ biodistribution of the 1, 2 and 3 was examined using H460 xenografts mice. The mice were sacrificed at 2, 4, 8, 12, 24 or 48 h post injection. Finally, all the major organs and tumour were collected, weighed, and homogenized (0.3 mL of lysis buffer per 100 mg of tissues). The homogeneous tissue solutions were obtained for fluorescence imaging by IVIS Spectrum CT. Known concentrations of compound 1, 2 or 3 are used to make the standard curve (concentration from 2.8 to 25.2 μg/mL), the “Predicted R-Squared” value of 0.99. Then we utilized this standard curve to measure the molecule content in each tissue. In addition, EJ xenograft tumour mice model was built, as above described, to validate the generality of the strategy.
Supplementary Figure 35∣ Quantitative analysis of the fluorescence intensity. In order to ensure the accuracy of the results, we added a standard solution in every tested 96 -well plate. The fluorescence property of molecules 1, 2 and 3 were identical. We take molecule 1 as example to illustrate the quantitative analysis. a. The top view of fluorescence images of a serial concentration of molecule 1 by Maestro II. The number from 1 to 11 represented 2.8, 5.6, 8.4, 11.2, 14.0, 16.8, 19.6, 22.4, 25.2, 28.0, 35.0 (μg/mL), respectively. The control group represented PBS buffer. b.
Fluorescence intensity (relative to the background signal) increase d linearly with the concentration […]
as §1
Supplementary Figure 36 ∣ Representative NIR fluorescence images of tissue lysates. The molecules 1, 2 and 3 (14 mg/kg, n = 3) on H460 tumour-bearing mice after intravenous administration in three groups. The mice were sacrificed at 2 h, 4 h, 8 h, 12 h, 24 h or 48 h post injection . […] The homogenous tissue solutions were obtained for fluorescence imaging. […]

Data set [4] deals with H460 tumour-bearing nude mice. Nature of the data set: Pharmacokinetic parameters in tumour (DAS2.0). It counts as in vivo, mouse. The settings on record: IV 14 mg/kg; for AUC0→t / AUC0→∞ / CL / MRT(0-t), mean retention time / Tmax / t1/2β, elimination half-life: in tumour, means ± SD n = 3; for AUC0→t: 0–48 h. As for the experimental part:
as §2
Supplementary Table 1︱Pharmacokinetic parameters of intravenously-administered 1, 2 and 3 in […]
Data are presented as means ± SD (n = 3). t1/2β, elimination half -life; CL, plasma clearance; Cmax, maximum concentration; Tmax, peak time ; MRT: mean retention time; AUC(0 -t), area under the 1, 2 and 3 concentration-time curve from time zero to the last quantifiable value; AUC(0 -∞), area und er the 1, 2 and 3 concentration -time curve from time zero to infinity, which represents the total drug exposure over time. h, hour(s).

Setting [5] is: fluorescence of diluted tissue lysates, mean ± s.d. n = 3, read-out: tumour uptake / accumulation efficiency at 48 h post injection.

Read-outs that look alike come from different tables or passages of the source. Where a SMILES comes first, the peptide text is derived from it. The star is where a group is joined. X1 = CC1(C)C(=CC=C2CCCC(C=CC3=[N+](CCCCCC(=O)O)c4ccccc4C3(C)C)=C2*)N(CCCCCC(=O)O)c2ccccc21

As to `CC[C@H](C)[C@H](NC(=O)[C@@H]1CCCN1C(=O)[C@@H](NC(=O)[C@H](C)N)C(C)C)C(=O)N[C@@H](C)C(=O)N[C@@H](CCC(N)=O)C(=O)N[C@@H](CCCCN)C(=O)N[C@@H](CC(=O)O)C(=O)N[C@@H](CCC(=O)O)C(=O)N[C@H](C(=O)N[C@@H](CC(=O)O)C(=O)N[C@@H](CCCCN)C(=O)N[C@@H](CC(C)C)C(=O)N[C@H](C(=O)N[C@@H](Cc1ccccc1)C(=O)N[C@@H](Cc1ccccc1)C(=O)N[C@@H](C)C(=O)N[C@@H](CCC(=O)O)C(=O)N[C@@H](CSC1=C(C=CC2=[N+](CCCCCC(=O)O)c3ccccc3C2(C)C)CCCC1=CC=C1N(CCCCCC(=O)O)c2ccccc2C1(C)C)C(=O)NCC(=O)O)C(C)C)C(C)C` [molecule 1] (H-AVPIAQKDEVDKLVFFAEC(X1)G-OH), in data set [1] (compared to untreated cells), the “labelling ratio of H460 cells at the first generation” value was found to be 100%. The “labelling ratio of H460 cells at the third generation” value in data set [1] is on record as “above 16.4%”. For the same compound, in data set [2], the “blood circulation half-life (t1/2β)” value amounted to 1.15 ± 0.10 h. The tissue uptake at 48 h in data set [3] (setting [5]) was 9.2 ± 0.5 %ID/g. Further, the tissue uptake at 48 h in data set [3] (fluorescence of tissue lysates, mean ± s.d. n = 3, read-out: liver retention at 48 h post injection) was 4.1 ± 0.2 %ID/g. In addition, in data set [4], the “AUC0–48h in tumour of molecule 1 relative to 2” value is recorded as “six-fold”, the “AUC0–48h in tumour of molecule 1 relative to 3” value is “three-fold”, the AUC0→t stood at 71.2 ± 4.7 mg·h/g and the “AUC0→∞” value was determined as 145.9 ± 1.0 mg·h/g. Besides, in data set [4], the CL is 1.3 ± 0.5 mL/min/kg; the “MRT(0-t), mean retention time” value amounted to 23.4 ± 0.2 h; the Tmax is 4.0 ± 0 h; the “t1/2β, elimination half-life” value came to 69.3 ± 0 h.
`CC[C@H](C)[C@H](NC(=O)[C@@H]1CCCN1C(=O)[C@@H](NC(=O)[C@H](C)N)C(C)C)C(=O)N[C@@H](C)C(=O)N[C@@H](CCC(N)=O)C(=O)N[C@@H](CCCCN)C(=O)N[C@@H](CC(=O)O)C(=O)N[C@@H](CCC(=O)O)C(=O)N[C@H](C(=O)N[C@@H](CC(=O)O)C(=O)N[C@@H](CCC(=O)O)C(=O)N[C@@H](CSC1=C(C=CC2=[N+](CCCCCC(=O)O)c3ccccc3C2(C)C)CCCC1=CC=C1N(CCCCCC(=O)O)c2ccccc2C1(C)C)C(=O)NCC(=O)O)C(C)C` [molecule 3] (H-AVPIAQKDEVDEC(X1)G-OH; N-terminus assumed): the “labelling ratio of H460 cells at the third generation” value in data set [1] was 3.89%. Besides, the “blood circulation half-life (t1/2β)” value in data set [2] is 1.06 ± 0.17 h. Also, the tissue uptake at 48 h in data set [3] (setting [5]) came out at 5.3 ± 0.8 %ID/g. Also, in data set [4], the AUC0→t was found to be 26.6 ± 8.9 mg·h/g; the “AUC0→∞” value amounted to 34.6 ± 12.2 mg·h/g; the CL was determined as 7.33 ± 2.5 mL/min/kg; the “MRT(0-t), mean retention time” value is 10.7 ± 1.8 h. In data set [4], the Tmax was determined as 6.7 ± 2.3 h and the “t1/2β, elimination half-life” value turned out to be 10.6 ± 2.8 h.
In the case of `CSCC[C@H](N)C(=O)N[C@@H](CC(=O)O)C(=O)N[C@@H](CCC(=O)O)C(=O)N[C@@H](CCCCN)C(=O)N[C@@H](C)C(=O)N[C@@H](CCC(N)=O)C(=O)N[C@@H](CCCCN)C(=O)N[C@@H](CC(=O)O)C(=O)N[C@@H](CCC(=O)O)C(=O)N[C@H](C(=O)N[C@@H](CC(=O)O)C(=O)N[C@@H](CCCCN)C(=O)N[C@@H](CC(C)C)C(=O)N[C@H](C(=O)N[C@@H](Cc1ccccc1)C(=O)N[C@@H](Cc1ccccc1)C(=O)N[C@@H](C)C(=O)N[C@@H](CCC(=O)O)C(=O)N[C@@H](CSC1=C(C=CC2=[N+](CCCCCC(=O)O)c3ccccc3C2(C)C)CCCC1=CC=C1N(CCCCCC(=O)O)c2ccccc2C1(C)C)C(=O)NCC(=O)O)C(C)C)C(C)C` [molecule 2] (H-MDEKAQKDEVDKLVFFAEC(X1)G-OH; N-terminus assumed), the “labelling ratio of H460 cells at the third generation” value in data set [1] is recorded as 6.83%. In data set [3] (setting [5]), the tissue uptake at 48 h amounted to 4.2 ± 0.1 %ID/g. Also, in data set [4], the AUC0→t was 12.2 ± 1.9 mg·h/g; the “AUC0→∞” value worked out at 14.1 ± 2.2 mg·h/g; the CL amounted to 16.7 ± 2.5 mL/min/kg; the “MRT(0-t), mean retention time” value is recorded as 15.2 ± 4.5 h. Moreover, in data set [4], the Tmax stood at 3.3 ± 1.2 h and the “t1/2β, elimination half-life” value is 10.0 ± 1.9 h.
